How the values were obtained:
[1] = system: HIV-1 mediated cell-cell fusion (R8 virus); conditions: mediated cell-cell fusion (R8 virus)
[2] = system: T-tropic (R8) HIV-1; conditions: T-tropic (R8)
[3] = system: M-tropic (BAL) HIV-1; conditions: M-tropic (BAL)

SMILES: CC(C)C[C@H](NC(=O)[C@H](CO)NC(=O)[C@H](C)NC(=O)[C@H](Cc1c[nH]c2ccccc12)NC(=O)[C@H](CCCCN)NC(=O)[C@H](CC(=O)O)NC(=O)[C@H](CC(C)C)NC(=O)[C@H](CCC(=O)O)NC(=O)[C@H](CC(C)C)NC(=O)[C@@H]1CSC(C(=O)NCCCC[C@H](NC(=O)CCNC(=O)C2N[C@H](C(=O)N[C@@H](CC(C)C)C(=O)N[C@@H](CCC(=O)O)C(=O)N[C@@H](CC(C)C)C(=O)N[C@@H](CC(=O)O)C(=O)N[C@@H](CCCCN)C(=O)N[C@@H](Cc3c[nH]c4ccccc34)C(=O)N[C@@H](C)C(=O)N[C@@H](CO)C(=O)N[C@@H](CC(C)C)C(=O)N[C@@H](Cc3c[nH]c4ccccc34)C(=O)N[C@@H](CC(N)=O)C(=O)N[C@@H](Cc3c[nH]c4ccccc34)C(=O)N[C@@H](Cc3ccccc3)C(=O)O)CS2)C(=O)N[C@@H](CCCCNC(=O)CNC(=O)C2N[C@H](C(=O)N[C@@H](CC(C)C)C(=O)N[C@@H](CCC(=O)O)C(=O)N[C@@H](CC(C)C)C(=O)N[C@@H](CC(=O)O)C(=O)N[C@@H](CCCCN)C(=O)N[C@@H](Cc3c[nH]c4ccccc34)C(=O)N[C@@H](C)C(=O)N[C@@H](CO)C(=O)N[C@@H](CC(C)C)C(=O)N[C@@H](Cc3c[nH]c4ccccc34)C(=O)N[C@@H](CC(N)=O)C(=O)N[C@@H](Cc3c[nH]c4ccccc34)C(=O)N[C@@H](Cc3ccccc3)C(=O)O)CS2)C(=O)N[C@@H](CO)C(=O)N[C@@H](CO)C(=O)N[C@@H](C)C(N)=O)N1)C(=O)N[C@@H](Cc1c[nH]c2ccccc12)C(=O)N[C@@H](CC(N)=O)C(=O)N[C@@H](Cc1c[nH]c2ccccc12)C(=O)N[C@@H](Cc1ccccc1)C(=O)O (stereo partly drawn) [Compound 3α-C13]
- IC50 [1]: 0.26 µM
- IC50 [2]: 0.43 µM
- IC50 [3]: 0.43 µM

SMILES: CC[C@H](C)[C@H](NC(=O)[C@@H]1CSC(C(=O)NCCCC[C@H](NC(=O)CCNC(=O)C2N[C@H](C(=O)N[C@H](C(=O)N[C@@H](CCC(=O)O)C(=O)N[C@@H](CCC(=O)O)C(=O)N[C@@H](CO)C(=O)N[C@@H](CCC(N)=O)C(=O)N[C@@H](CC(N)=O)C(=O)N[C@@H](CCC(N)=O)C(=O)N[C@@H](CCC(N)=O)C(=O)N[C@@H](CCC(=O)O)C(=O)N[C@@H](CCCCN)C(=O)N[C@@H](CC(N)=O)C(=O)N[C@@H](CCC(=O)O)C(=O)N[C@@H](CCC(N)=O)C(=O)N[C@@H](CCC(=O)O)C(=O)N[C@@H](CC(C)C)C(=O)N[C@@H](CC(C)C)C(=O)O)[C@@H](C)CC)CS2)C(=O)N[C@@H](CCCCNC(=O)CNC(=O)C2N[C@H](C(=O)N[C@H](C(=O)N[C@@H](CCC(=O)O)C(=O)N[C@@H](CCC(=O)O)C(=O)N[C@@H](CO)C(=O)N[C@@H](CCC(N)=O)C(=O)N[C@@H](CC(N)=O)C(=O)N[C@@H](CCC(N)=O)C(=O)N[C@@H](CCC(N)=O)C(=O)N[C@@H](CCC(=O)O)C(=O)N[C@@H](CCCCN)C(=O)N[C@@H](CC(N)=O)C(=O)N[C@@H](CCC(=O)O)C(=O)N[C@@H](CCC(N)=O)C(=O)N[C@@H](CCC(=O)O)C(=O)N[C@@H](CC(C)C)C(=O)N[C@@H](CC(C)C)C(=O)O)[C@@H](C)CC)CS2)C(=O)N[C@@H](CO)C(=O)N[C@@H](CO)C(=O)N[C@@H](C)C(N)=O)N1)C(=O)N[C@@H](CCC(=O)O)C(=O)N[C@@H](CCC(=O)O)C(=O)N[C@@H](CO)C(=O)N[C@@H](CCC(N)=O)C(=O)N[C@@H](CC(N)=O)C(=O)N[C@@H](CCC(N)=O)C(=O)N[C@@H](CCC(N)=O)C(=O)N[C@@H](CCC(=O)O)C(=O)N[C@@H](CCCCN)C(=O)N[C@@H](CC(N)=O)C(=O)N[C@@H](CCC(=O)O)C(=O)N[C@@H](CCC(N)=O)C(=O)N[C@@H](CCC(=O)O)C(=O)N[C@@H](CC(C)C)C(=O)N[C@@H](CC(C)C)C(=O)O (stereo partly drawn) [Compound 3α-C16]
- IC50 [1]: > 1 µM
- IC50 [2]: > 1 µM
- IC50 [3]: 0.124 µM

SMILES: CC(C)C[C@H](NC(=O)[C@H](CO)NC(=O)[C@H](C)NC(=O)[C@H](Cc1c[nH]c2ccccc12)NC(=O)[C@H](CCCCN)NC(=O)[C@H](CC(=O)O)NC(=O)[C@H](CC(C)C)NC(=O)[C@H](CCC(=O)O)NC(=O)[C@H](CC(C)C)NC(=O)[C@H](CC(C)C)NC(=O)[C@H](CCC(=O)O)NC(=O)[C@H](CCC(N)=O)NC(=O)[C@H](CCC(=O)O)NC(=O)[C@H](CC(N)=O)NC(=O)[C@H](CCCCN)NC(=O)[C@H](CCC(=O)O)NC(=O)[C@H](CCC(N)=O)NC(=O)[C@H](CCC(N)=O)NC(=O)[C@H](CC(N)=O)NC(=O)[C@H](CCC(N)=O)NC(=O)[C@@H]1CSC(C(=O)NCCCC[C@H](NC(=O)CCNC(=O)C2N[C@H](C(=O)N[C@@H](CCC(N)=O)C(=O)N[C@@H](CC(N)=O)C(=O)N[C@@H](CCC(N)=O)C(=O)N[C@@H](CCC(N)=O)C(=O)N[C@@H](CCC(=O)O)C(=O)N[C@@H](CCCCN)C(=O)N[C@@H](CC(N)=O)C(=O)N[C@@H](CCC(=O)O)C(=O)N[C@@H](CCC(N)=O)C(=O)N[C@@H](CCC(=O)O)C(=O)N[C@@H](CC(C)C)C(=O)N[C@@H](CC(C)C)C(=O)N[C@@H](CCC(=O)O)C(=O)N[C@@H](CC(C)C)C(=O)N[C@@H](CC(=O)O)C(=O)N[C@@H](CCCCN)C(=O)N[C@@H](Cc3c[nH]c4ccccc34)C(=O)N[C@@H](C)C(=O)N[C@@H](CO)C(=O)N[C@@H](CC(C)C)C(=O)N[C@@H](Cc3c[nH]c4ccccc34)C(=O)N[C@@H](CC(N)=O)C(=O)N[C@@H](Cc3c[nH]c4ccccc34)C(=O)N[C@@H](Cc3ccccc3)C(=O)O)CS2)C(=O)N[C@@H](CCCCNC(=O)CNC(=O)C2N[C@H](C(=O)N[C@@H](CCC(N)=O)C(=O)N[C@@H](CC(N)=O)C(=O)N[C@@H](CCC(N)=O)C(=O)N[C@@H](CCC(N)=O)C(=O)N[C@@H](CCC(=O)O)C(=O)N[C@@H](CCCCN)C(=O)N[C@@H](CC(N)=O)C(=O)N[C@@H](CCC(=O)O)C(=O)N[C@@H](CCC(N)=O)C(=O)N[C@@H](CCC(=O)O)C(=O)N[C@@H](CC(C)C)C(=O)N[C@@H](CC(C)C)C(=O)N[C@@H](CCC(=O)O)C(=O)N[C@@H](CC(C)C)C(=O)N[C@@H](CC(=O)O)C(=O)N[C@@H](CCCCN)C(=O)N[C@@H](Cc3c[nH]c4ccccc34)C(=O)N[C@@H](C)C(=O)N[C@@H](CO)C(=O)N[C@@H](CC(C)C)C(=O)N[C@@H](Cc3c[nH]c4ccccc34)C(=O)N[C@@H](CC(N)=O)C(=O)N[C@@H](Cc3c[nH]c4ccccc34)C(=O)N[C@@H](Cc3ccccc3)C(=O)O)CS2)C(=O)N[C@@H](CO)C(=O)N[C@@H](CO)C(=O)N[C@@H](C)C(N)=O)N1)C(=O)N[C@@H](Cc1c[nH]c2ccccc12)C(=O)N[C@@H](CC(N)=O)C(=O)N[C@@H](Cc1c[nH]c2ccccc12)C(=O)N[C@@H](Cc1ccccc1)C(=O)O (stereo partly drawn) [Compound 3α-C24]
- IC50 [1]: 0.29 µM
- IC50 [2]: 0.31 µM
- IC50 [3]: 0.036 µM

SMILES: CC[C@H](C)[C@H](NC(=O)[C@H](CC(C)C)NC(=O)[C@H](CO)NC(=O)[C@H](Cc1c[nH]cn1)NC(=O)[C@@H](NC(=O)[C@H](CC(C)C)NC(=O)[C@H](CO)NC(=O)[C@@H](NC(=O)[C@H](Cc1ccc(O)cc1)NC(=O)[C@H](CC(N)=O)NC(=O)[C@H](CC(N)=O)NC(=O)[C@@H](NC(=O)[C@@H]1CSC(C(=O)NCCCC[C@H](NC(=O)CCNC(=O)C2N[C@H](C(=O)N[C@H](C(=O)N[C@@H](CC(N)=O)C(=O)N[C@@H](CC(N)=O)C(=O)N[C@@H](Cc3ccc(O)cc3)C(=O)N[C@H](C(=O)N[C@@H](CO)C(=O)N[C@@H](CC(C)C)C(=O)N[C@H](C(=O)N[C@@H](Cc3c[nH]cn3)C(=O)N[C@@H](CO)C(=O)N[C@@H](CC(C)C)C(=O)N[C@H](C(=O)N[C@@H](CCC(=O)O)C(=O)N[C@@H](CCC(=O)O)C(=O)N[C@@H](CO)C(=O)N[C@@H](CCC(N)=O)C(=O)N[C@@H](CC(N)=O)C(=O)N[C@@H](CCC(N)=O)C(=O)N[C@@H](CCC(N)=O)C(=O)N[C@@H](CCC(=O)O)C(=O)N[C@@H](CCCCN)C(=O)N[C@@H](CC(N)=O)C(=O)N[C@@H](CCC(=O)O)C(=O)N[C@@H](CCC(N)=O)C(=O)N[C@@H](CCC(=O)O)C(=O)N[C@@H](CC(C)C)C(=O)N[C@@H](CC(C)C)C(=O)O)[C@@H](C)CC)[C@@H](C)CC)[C@@H](C)O)[C@@H](C)CC)CS2)C(=O)N[C@@H](CCCCNC(=O)CNC(=O)C2N[C@H](C(=O)N[C@H](C(=O)N[C@@H](CC(N)=O)C(=O)N[C@@H](CC(N)=O)C(=O)N[C@@H](Cc3ccc(O)cc3)C(=O)N[C@H](C(=O)N[C@@H](CO)C(=O)N[C@@H](CC(C)C)C(=O)N[C@H](C(=O)N[C@@H](Cc3c[nH]cn3)C(=O)N[C@@H](CO)C(=O)N[C@@H](CC(C)C)C(=O)N[C@H](C(=O)N[C@@H](CCC(=O)O)C(=O)N[C@@H](CCC(=O)O)C(=O)N[C@@H](CO)C(=O)N[C@@H](CCC(N)=O)C(=O)N[C@@H](CC(N)=O)C(=O)N[C@@H](CCC(N)=O)C(=O)N[C@@H](CCC(N)=O)C(=O)N[C@@H](CCC(=O)O)C(=O)N[C@@H](CCCCN)C(=O)N[C@@H](CC(N)=O)C(=O)N[C@@H](CCC(=O)O)C(=O)N[C@@H](CCC(N)=O)C(=O)N[C@@H](CCC(=O)O)C(=O)N[C@@H](CC(C)C)C(=O)N[C@@H](CC(C)C)C(=O)O)[C@@H](C)CC)[C@@H](C)CC)[C@@H](C)O)[C@@H](C)CC)CS2)C(=O)N[C@@H](CO)C(=O)N[C@@H](CO)C(=O)N[C@@H](C)C(N)=O)N1)[C@@H](C)CC)[C@@H](C)O)[C@@H](C)CC)C(=O)N[C@@H](CCC(=O)O)C(=O)N[C@@H](CCC(=O)O)C(=O)N[C@@H](CO)C(=O)N[C@@H](CCC(N)=O)C(=O)N[C@@H](CC(N)=O)C(=O)N[C@@H](CCC(N)=O)C(=O)N[C@@H](CCC(N)=O)C(=O)N[C@@H](CCC(=O)O)C(=O)N[C@@H](CCCCN)C(=O)N[C@@H](CC(N)=O)C(=O)N[C@@H](CCC(=O)O)C(=O)N[C@@H](CCC(N)=O)C(=O)N[C@@H](CCC(=O)O)C(=O)N[C@@H](CC(C)C)C(=O)N[C@@H](CC(C)C)C(=O)O (stereo partly drawn) [Compound 3α-C27]
- IC50 [1]: 0.0028 µM
- IC50 [2]: 0.38 µM
- IC50 [3]: 0.0005 µM

Source: US20050113292A1 (priority 2003, published 2005)
